From US5053070A, “Pyrimidine derivatives, preparation processes thereof, herbicide containing the same, and herbicidal compositions containing the same along with other active ingredient” (Mitsui Toatsu Chemicals, Incorporated, priority 1988, dated 1991)
In brackets after ≈: the same amount, converted by molar mass.

Columns and labels:
narrowleaf waterplantain = assay: Petri dish test (Test 6); assay type: in vivo; settings: 336 h; seeds on filter paper, 25° C., 14 days; read-out: I80 (ppm)
Procedure: A filter paper was placed in each glass-made Petri dish having a diameter of 9 cm. A compound dissolved in acetone was added in a predetermined amount. The filter paper was then dried in air to remove acetone. Seeds of narrowleaf waterplantain were placed on the filter paper and 10 ml of water were poured into the Petri dish. The seeds were allowed to grow at 25° C. in a bright room. Fourteen days later, the state of growth of narrowleaf water-plantain was observed.
In the table, the degree of damages of the test plant was determined by comparing the state of growth of the plant with that of the plant in an untreated group and is shown in accordance with the following standard: […]

[1] = system: ALS (acetolactate syntase); assay: ALS enzyme assay (Test 1); assay type: biochemical, barnyardgrass; settings: 1,000 ppm (0.5 mg/0.5 ml)
Procedure: (§1) To determine the selectivity in enzyme level between crops and weeds, and ALS enzyme assay was conducted using pea as a representative of broadleaf crops and barnyardgrass as a representative of narrowleaf weeds.
(§2) After seeds of pea and barnyardgrass were allowed to germinate at 25° C. for 8-14 days in a dark place, partially-purified suspensions (Suspensions A) of acetolactate syntase were separately obtained from seedlings in accordance with the method described in the literature, Plant Physiology, 75, 827-831.
(§3) In a test tube, 0.5 mg of one of test compounds was weighed, followed by the addition of 0.15 ml of a 20 mM K2 HPO4 solution and 0.25 ml of a reaction substrate medium which consisted of 40 mM of K2 HPO4, 40 mM of sodium pyruvate, 1 mM of TPP, 1 mM of MgCl2 and 20 μM of FAD so that 0.4 ml of a reaction solution (Solution B) was prepared. Added to 0.4 ml of Solution B was 0.1 ml of suspension A. After the resultant mixture was shaken for 1 hour in a thermostat water bath controlled at 30° C., 50 μl of 6N sulfuric acid were added to terminate the reaction.
(§4) Next, the reaction-terminated liquid mixture was transferred into a thermostat water bath controlled at 60° C. and was heated for 15 minutes. Thereafter, 0.5 ml of a 0.5% creatine solution and 0.5 ml of a 5% alkaline α-naphthol solution were added, and the resultant mixture was maintained at 60° C. for 15 minutes. As a result, the test solution developed a pink-red color. After the above operation, the absorbance of the test solution at 525 nm was measured by a spectrophotometer (Absorbance 1 of Test Compound).
(§5) On the other hand, the absorbance (Absorbance 2 of Blank) of a solution obtained by subjecting a portion of Solution B, said portion being free of the test compound, to the above operation and the absorbance (Absorbance 3 of sulfuric acid terminated) of another solution obtained by subjecting another portion of Solution B, said portion containing 50 μl of 6N sulfuric acid as a test compound, were measured at the same time. Based on the values of the respective measurements, the enzyme assay at 1,000 ppm (0.5 mg/0.5 ml) of each compound was determined. [formula]

peanut = assay: Upland soil application test (Test 2), crop injury; assay type: in vivo; settings: 30 g ai/a, soil spray before emergence, 30 days later
Procedure: (§6) Resin-made 1/2500-are pots were filled with the soil of an upland field. After they were fertilized, soybean, peanut and cotton were seeded and 2-3 cm soil covering was applied. Seeds of redroot pigweed, common lambsquarters, barnyardgrass, green foxtail, large crabgrass, foxtail meadow and johnsongrass had been uniformly mixed with the soil. They were allowed to germinate in a green house. One day later (before emergence of weeds), a wettable powder prepared from a predetermined amount of each test compound in a similar manner to the method described in Formulation Example 1 was diluted with water and then sprayed evenly at an application rate equal to 10 l per are onto the surface of the soil by means of a pressure-operated ULV (ultra low volume) sprayer. Influence to the crops and weeds were observed 30 days later. The results are shown in Table 3, in which the degree of damages of each test plant and the degree of injury to each crop were determined by comparing the air-dried weights of the test plant and crop with those of the corresponding plant and crop in untreated pots and are shown in accordance with the following standard: […]

cotton = assay: Upland soil application test (Test 2), crop injury; assay type: in vivo; settings: 30 g ai/a, soil spray before emergence, 30 days later
Procedure: as §6

soybean = assay: Upland soil application test (Test 2), crop injury; assay type: in vivo; settings: 30 g ai/a, soil spray before emergence, 30 days later
Procedure: as §6

rice = assay: Treatment of soil under submerged condition, post-emergence (Test 5), injury; assay type: in vivo; settings: 30 g ai/a granule, 30 days later
Procedure: 1/5000-are Wagner pots were filled with soil. Seeds or tubers of barnyardgrass, Monochoria vaginalis, bulrush, Sagittaria pygmaea, Cyperus serroylnus and Eleocharis kuroguwai were seeded or planted under submerged condition. Two pairs of rice seedlings (2-3 leaf stage), which had been reared in advance, were transplanted to each pot and were allowed to grow in a green house. Each pair consisted of two rice seedlings. When the barnyardgrass grew to two-leaf stage, each pot was treated with a granule which had been prepared by processing a predetermined amount of the test composition in accordance with a similar method to the method described in Formulation Example 9. The state of emergence of weeds and the state of injury of rice were observed 30 days later.
In the table, the degrees of damages of the test plants and the degrees of injury of the rice are shown in a similar manner to Example 2.

barnyardgrass = assay: Upland foliar application test (Test 3); assay type: in vivo; settings: 30 g ai/a, foliar spray at 2-3 leaves, 30th day
Procedure: (§7) Resin-made 1/10000-are pots were filled with the soil of an upland field. Redroot pigweed, common lambsquarters, foxtail meadow, johnsongrass, barnyardgrass, green foxtail, large crabgrass, soybean, peanut and cotton were separately seeded and were allowed to germinate in a green house. When each plant grew to the stage of 2-3 leaves, an emulsion formulated from a predetermined amount of each test compound in a similar manner to the method described in Formulation Example 11 was diluted with water to a predetermined dilution rate and then sprayed at an application rate equal to 5 l per are onto the foliage of each plant by means of a pressure-operated ULV (ultra low volume) sprayer. Influence to the crops and weeds were observed on the 30th day after the spray of the herbicides. The results are shown in Table 4 in which the degree of damages of each test plant and the degree of injury to each crop are shown in a similar manner to Test 2.

common lambsquarters = assay: Upland foliar application test (Test 3); assay type: in vivo; settings: 30 g ai/a, foliar spray at 2-3 leaves, 30th day
Procedure: as §7

green foxtail = assay: Upland foliar application test (Test 3); assay type: in vivo; settings: 30 g ai/a, foliar spray at 2-3 leaves, 30th day
Procedure: as §7

johnsongrass = assay: Upland foliar application test (Test 3); assay type: in vivo; settings: 30 g ai/a, foliar spray at 2-3 leaves, 30th day
Procedure: as §7

large crabgrass = assay: Upland foliar application test (Test 3); assay type: in vivo; settings: 30 g ai/a, foliar spray at 2-3 leaves, 30th day
Procedure: as §7

foxtail meadow = assay: Upland foliar application test (Test 3); assay type: in vivo; settings: 30 g ai/a, foliar spray at 2-3 leaves, 30th day
Procedure: as §7

redroot pigweed = assay: Upland foliar application test (Test 3); assay type: in vivo; settings: 30 g ai/a, foliar spray at 2-3 leaves, 30th day
Procedure: as §7

[2] = system: ALS (acetolactate syntase); assay: ALS enzyme assay (Test 1); assay type: biochemical, pea; settings: 1,000 ppm (0.5 mg/0.5 ml)
Procedure: as §1, §2, §3, §4, §5

Row | Inhibitory activity (%) Barnyardgrass [1] | Inhibitory activity (%) Pea [2] | SMILES | IC80 (narrowleaf waterplantain) | Injury Peanut (peanut) | Injury Cotton (cotton) | Injury Soybean (soybean) | Injury Rice (rice) | Herbicidal effects Barnyardgrass (barnyardgrass) | Herbicidal effects Common lambsquarters (common lambsquarters) | Herbicidal effects Green foxtail (green foxtail) | Herbicidal effects Johnsongrass (johnsongrass) | Herbicidal effects Large crabgrass (large crabgrass) | Herbicidal effects Foxtail meadow (foxtail meadow) | Herbicidal effects Redroot pigweed (redroot pigweed)
1 | 16% | 0% | COc1cc(OC)nc(Oc2ccccc2C=NOCc2ccc(C)cc2)n1 [compound 19] | 100 µg/mL (≈ 264 µM) | 0 (91-100 (No damages)) | 0 (91-100 (No damages)) | 0 (91-100 (No damages)) | 0 (91-100 (No damages)) | 3 (11-40 (Medium damages)) | 4 (6-10 (Severe damages)) | 5 (0-5 (Death)) | 5 (0-5 (Death)) | 3 (11-40 (Medium damages)) | 4 (6-10 (Severe damages)) | 4 (6-10 (Severe damages))
2 | 15% | 0% | COc1cc(OC)nc(Oc2ccccc2C=NOCc2ccc(Cl)cc2Cl)n1 [Compound No. 17] | 100 µg/mL (≈ 230 µM) | 0 (91-100 (No damages)) | 0 (91-100 (No damages)) | 0 (91-100 (No damages)) | 0 (91-100 (No damages)) | 3 (11-40 (Medium damages)) | 4 (6-10 (Severe damages)) | 5 (0-5 (Death)) | 5 (0-5 (Death)) | 3 (11-40 (Medium damages)) | 3 (11-40 (Medium damages)) | 4 (6-10 (Severe damages))
3 | 97% | 6% | COc1cc(OC)nc(Oc2ccccc2C=NOCC=Cc2ccc(Cl)cc2Cl)n1 [compound 30] | 2 µg/mL (≈ 4.34 µM) | 0 (91-100 (No damages)) | 0 (91-100 (No damages)) | 0 (91-100 (No damages)) | 0 (91-100 (No damages)) | 5 (0-5 (Death)) | 4 (6-10 (Severe damages)) | 5 (0-5 (Death)) | 5 (0-5 (Death)) | 5 (0-5 (Death)) | 5 (0-5 (Death)) | 5 (0-5 (Death))
4 | 89% | 8% | COc1cc(OC)nc(Oc2ccccc2C=NOCC=Cc2cccc(Cl)c2)n1 [Compound No. 26, 0-(3-chlorocinnamyl)-2-(4,6-dimethoxy-2-pyrimidinyloxy)benzaldxime] | 2 µg/mL (≈ 4.7 µM) | 0 (91-100 (No damages)) | 0 (91-100 (No damages)) | 0 (91-100 (No damages)) | 0 (91-100 (No damages)) | 5 (0-5 (Death)) | 4 (6-10 (Severe damages)) | 5 (0-5 (Death)) | 5 (0-5 (Death)) | 5 (0-5 (Death)) | 4 (6-10 (Severe damages)) | 4 (6-10 (Severe damages))

More lines, now with the values behind:

Row | SMILES | Inhibitory activity (%) Barnyardgrass [1] | Inhibitory activity (%) Pea [2] | IC80 (narrowleaf waterplantain) | Injury Peanut (peanut) | Injury Cotton (cotton) | Injury Soybean (soybean) | Injury Rice (rice) | Herbicidal effects Barnyardgrass (barnyardgrass) | Herbicidal effects Common lambsquarters (common lambsquarters) | Herbicidal effects Green foxtail (green foxtail) | Herbicidal effects Johnsongrass (johnsongrass) | Herbicidal effects Large crabgrass (large crabgrass) | Herbicidal effects Foxtail meadow (foxtail meadow) | Herbicidal effects Redroot pigweed (redroot pigweed)
5 | COC(=O)c1ccccc1Oc1nc(OC)cc(OC)n1 [A, reference compound] | 73% | 72% | 1 µg/mL (≈ 3.45 µM) | 5 (0-5 (Death)) | 5 (0-5 (Death)) | 5 (0-5 (Death)) | 5 (0-5 (Death)) | 5 (0-5 (Death)) | 4 (6-10 (Severe damages)) | 5 (0-5 (Death)) | 5 (0-5 (Death)) | 5 (0-5 (Death)) | 5 (0-5 (Death)) | 5 (0-5 (Death))
6 | C=CCON=Cc1ccccc1Oc1nc(OC)cc(OC)n1 [Compound No. 4] | 59% | 0% | 100 µg/mL (≈ 317 µM) | 0 (91-100 (No damages)) | 0 (91-100 (No damages)) | 0 (91-100 (No damages)) | 0 (91-100 (No damages)) | 5 (0-5 (Death)) | 3 (11-40 (Medium damages)) | 5 (0-5 (Death)) | 5 (0-5 (Death)) | 3 (11-40 (Medium damages)) | 5 (0-5 (Death)) | 4 (6-10 (Severe damages))
7 | COc1cc(OC)nc(Oc2ccccc2C=NOC2CCCCC2)n1 [Compound No. 3] | 22% | 0% | 100 µg/mL (≈ 280 µM) | 0 (91-100 (No damages)) | 0 (91-100 (No damages)) | 0 (91-100 (No damages)) | 0 (91-100 (No damages)) | 5 (0-5 (Death)) | 4 (6-10 (Severe damages)) | 5 (0-5 (Death)) | 5 (0-5 (Death)) | 4 (6-10 (Severe damages)) | 5 (0-5 (Death)) | 4 (6-10 (Severe damages))
